Values joined by “and” are separate entries in the source; they are usually repeats but may differ in a detail not shown here. Equal entries are not always repeated.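 Dose response: 5 concentrations. Exposure: 48 h. Format: 96-well plates. Endpoint: linear interpolation; highest concentration if not reached. Here, GI50 denotes the concentration required for 50% inhibition of growth. The concentration for full growth arrest is given as TGI.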
Tests used:
Experiment in all cases: NCI tumour cell line growth inhibition, 48 h
SR leukemia = system: SR leukemia
NCI-H460 lung = system: NCI-H460 lung
UACC-62 melanoma = system: UACC-62 melanoma
SF-268 CNS = system: SF-268 CNS
CAKI-1 renal = system: CAKI-1 renal
NCI/ADR-RES ovarian = system: NCI/ADR-RES ovarian
DU-145 prostate = system: DU-145 prostate
A549 NSCLC = system: A549 NSCLC
SNB-19 CNS = system: SNB-19 CNS
T-47D breast = system: T-47D breast

Structure (SMILES)	GI50 (SR leukemia)	TGI (SR leukemia)	GI50 (NCI-H460 lung)	TGI (NCI-H460 lung)	GI50 (UACC-62 melanoma)	TGI (UACC-62 melanoma)	GI50 (SF-268 CNS)	TGI (SF-268 CNS)	GI50 (CAKI-1 renal)	TGI (CAKI-1 renal)	GI50 (NCI/ADR-RES ovarian)	TGI (NCI/ADR-RES ovarian)	GI50 (DU-145 prostate)	TGI (DU-145 prostate)	GI50 (A549 NSCLC)	TGI (A549 NSCLC)	GI50 (SNB-19 CNS)	TGI (SNB-19 CNS)	GI50 (T-47D breast)	TGI (T-47D breast)
CSc1ccc(-c2cn3ccsc3n2)cc1	1.25 µM	> 60.8 µM	3.71 µM	> 100 µM	25.7 µM	> 100 µM	7.54 µM	> 100 µM	24.9 µM	> 100 µM	26.4 µM	> 100 µM	9.07 µM	> 100 µM	12.9 µM	> 100 µM	43.5 µM	> 100 µM	8.53 µM	> 100 µM
N#Cc1cnn(C(=O)c2nn(-c3ccc(Cl)cc3)cc2O)c1N	0.278 µM	0.983 µM	0.189 µM	0.507 µM	0.303 µM	2.22 µM	0.439 µM	23.8 µM	0.259 µM	1.47 µM	0.401 µM	8.78 µM	0.57 µM	28.4 µM	0.201 µM	16.5 µM	0.443 µM	> 60.5 µM	0.294 µM	19.1 µM
COc1cc2c(cc1O)CCN[C@@]21CS[C@H]2c3c(OC(C)=O)c(C)c4c(c3C(COC1=O)N1C2C2NC(Cc3cc(C)c(OC)c(O)c32)[C@@H]1O)OCO4 (stereo not given in full)	4.5 ng/mL	–	–	< 0.01 µM	4.5 ng/mL	4.5 ng/mL	4.5 ng/mL	< 10 nM and 4.8e-07 µg/mL and 0.0045 µg/mL	0.000294 ng/mL	3.03 µM	–	0.0369 µM	–	11 µM	0.000368 ng/mL	10.4 µM	–	11.4 µM	–	0.0453 µM
COc1cc([C@H]2OC[C@@H]3C(c4cc(OC)c5c(c4)OCO5)OC[C@H]23)cc(OC)c1OC (stereo not given in full)	–	> 100 µM	–	> 100 µM	–	> 100 µM	–	> 100 µM	–	> 100 µM	–	> 100 µM	–	> 100 µM	–	> 100 µM	–	> 100 µM	–	> 100 µM
O=C1OC(c2ccccc2)=N/C1=C\c1ccccc1	–	73.4 µM and > 100 µM	–	> 100 µM	–	> 100 µM	14.5 µM and 34.8 µM	82.5 µM and > 100 µM	–	> 100 µM	–	> 100 µM and 76.9 µM	–	> 100 µM	–	> 100 µM	–	> 100 µM	–	> 100 µM
COc1ccc(/C(=C(\c2ccccc2)[N+](=O)[O-])c2ccc(OCCN3CCCC3)cc2)cc1	1.49 µM	5.05 µM	2.02 µM	4.69 µM	1.93 µM	4.24 µM	5.99 µM	20 µM	2.68 µM	9.87 µM	8.41 µM	24.2 µM	9.52 µM	21.5 µM	4.68 µM	17.3 µM	5.61 µM	18.6 µM	1.06 µM	15.2 µM
COc1ccccc1NC(=O)c1sc2ncn(CCOc3ccccc3)c(=O)c2c1C	0.856 µM	6.87 µM	2.55 µM	> 50 µM	2.04 µM	> 50 µM	3.2 µM	> 50 µM	2.42 µM	> 50 µM	1.76 µM	> 50 µM	> 50 µM	> 50 µM	3.36 µM	> 50 µM	> 50 µM	> 50 µM	> 50 µM	> 50 µM
CN1CCN(Cc2ccc(NC(=O)c3cncc(C#Cc4c(N)ncc5ccccc45)c3)cc2C(F)(F)F)CC1	0.259 µM	3.7 µM	0.344 µM	1.04 µM	0.791 µM	1.55 µM	0.723 µM	1.56 µM	0.765 µM	1.44 µM	0.945 µM	2.21 µM	0.716 µM	1.39 µM	0.668 µM	1.45 µM	0.924 µM	1.76 µM	0.831 µM	1.66 µM
COc1cccc(/C=C\C(=O)c2ccccc2)c1	8.89 µM	> 100 µM	4.02 µM	22.3 µM	13.3 µM	29 µM	5.96 µM	28.9 µM	9.66 µM	24.8 µM	17.2 µM	> 100 µM	4.73 µM	20.5 µM	15 µM	40.5 µM	7.68 µM	24.4 µM	9.72 µM	41.3 µM
O=C(/C=C/c1ccco1)Nc1ncc(Cc2cc(Cl)ccc2Cl)s1	0.0385 µM	> 100 µM	0.0392 µM	> 100 µM	0.0487 µM	> 100 µM	0.102 µM	> 100 µM	0.05 µM	> 100 µM	0.0327 µM	0.37 µM	0.055 µM	> 41.6 µM	0.108 µM	> 100 µM	0.0585 µM	> 100 µM	0.255 µM	> 100 µM
CC1CCc2c(C(=O)Nc3ncc(Cc4cccc([N+](=O)[O-])c4)s3)csc2C1 (stereo not given)	0.176 µM	> 100 µM	0.491 µM	> 100 µM	0.373 µM	> 100 µM	1.53 µM	> 100 µM	0.431 µM	> 100 µM	0.46 µM	> 100 µM	1.05 µM	> 100 µM	0.944 µM	> 100 µM	0.678 µM	> 100 µM	0.653 µM	> 100 µM
O=C1c2ccc3c4c(ccc(c24)C(=O)N1CCCCO)C(=O)N(CCCCO)C3=O	0.745 µM	21.5 µM	1.12 µM	4.75 µM	0.726 µM	2.28 µM	2.09 µM	11.5 µM	2.27 µM	13.6 µM	2.33 µM	11 µM	2.2 µM	6.32 µM	1.93 µM	6.65 µM	2.34 µM	10.5 µM	2.54 µM	7.26 µM

Source: PubChem BioAssay (NCI)
